What follows are compounds tested on HBsAg (assay: HBsAg assay). Conditions: Hepatitis B virus, HepG2.2.15, 144 h, read-out: sAg EC50, μM, HepG2.2.15 cells, day 6.
Type: cell-based, hepatitis B virus
In short: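 HepG2.2.15 cells were treated with serially diluted compounds (0.5% DMSO), with medium and compound renewed after 2-3 days. Secreted HBsAg measured at day 6 by chemiluminescence immunoassay; EC50 from dose-response curves. Viability assessed in parallel by CellTiter-Glo.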

Going from `CCOC(=O)c1cn2c(cc1=O)-c1nc(OC)c(OCCCOC)cc1CC2(CC)CC` [Example 161, Ethyl 6,6-diethyl-2-methoxy-3-(3-methoxypropoxy)-10-oxo-5,10-dihydro-6H-pyrido[1,2-h][1,7]naphthyridine-9-carboxylate] to `CCC1(CC)Cc2cc(OCCCOC)c(OC)nc2-c2cc(=O)c(C(=O)O)cn21` [Example 162, 6,6-Diethyl-2-methoxy-3-(3-methoxypropoxy)-10-oxo-5,10-dihydro-6H-pyrido[1,2-h][1,7]naphthyridine-9-carboxylic acid], the EC50 falls from 0.1 µM to 0.014 µM (7.1-fold). The second is the more potent here.

Going from `CCC1(C(C)C)Cc2cc(OCCCOC)c(OC)nc2-c2cc(=O)c(C(=O)O)cn21` (centres unmarked) [Example 163, 6-Ethyl-6-isopropyl-2-methoxy-3-(3-methoxypropoxy)-10-oxo-5,10-dihydro-6H-pyrido[1,2-h][1,7]naphthyridine-9-carboxylic acid] to `COCCCOc1cc2c(nc1OC)-c1cc(=O)c(C(=O)O)cn1C1(CCC1)C2` [Example 171, 2′-Methoxy-3′-(3-methoxypropoxy)-10′-oxo-5′,10′-dihydrospiro[cyclobutane-1,6′-pyrido[1,2-h][1,7]naphthyridine]-9′-carboxylic acid], the EC50 falls from 0.13 µM to 0.018 µM (7.2-fold).

Going from `CC(C)[C@@H]1Cc2cc(O)c(O)nc2-c2cc(=O)c(C(=O)O)cn21` [Example 164, (6S)-2,3-Dihydroxy-6-isopropyl-10-oxo-5H,6H-pyrido[1,2-h]1,7-naphthyridine-9-carboxylic acid] to `COc1cc2c(n(C)c1=O)-c1cc(=O)c(C(=O)O)cn1[C@H](C(C)C)C2` [Example 165, (S)-6-Isopropyl-3-methoxy-1-methyl-2,10-dioxo-2,5,6,10-tetrahydro-1H-pyrido[1,2-h][1,7]naphthyridine-9-carboxylic acid], the EC50 falls from 10 µM to 4.3 µM (2.3-fold). The second is the more potent here.

Going from `COCCCOc1cc2c(nc1OC)-c1cc(=O)c(C(=O)O)cn1[C@H](C(C)C)CC2` [Example 168, (S)-7-Isopropyl-2-methoxy-3-(3-methoxypropoxy)-11-oxo-5,6,7,11-tetrahydrodipyrido[1,2-a:2′,3′-c]azepine-10-carboxylic acid] to `CC(C)[C@@H]1CCc2cc3c(nc2-c2cc(=O)c(C(=O)O)cn21)OCCO3` [Example 170, (S)-6-Isopropyl-2-oxo-2,6,7,8,11,12-hexahydro-[1,4]dioxino[2′,3′:5,6]pyrido[2,3-c]pyrido[1,2-a]azepine-3-carboxylic acid e], the EC50 rises from 0.071 µM to 5 µM (70-fold). The first is the more potent here.

First: CC(C)[C@@H]1CCc2cc3c(nc2-c2cc(=O)c(C(=O)O)cn21)OCCCO3 [Example 169, (S)-6-Isopropyl-2-oxo-2,6,7,8,12,13-hexahydro-111-[1,4]dioxepino[2′,3′:5,6]pyrido[2,3-c]pyrido[1,2-a]azepine-3-carboxylic acid]
Second: COc1ccc2c(n1)-c1cc(=O)c(C(=O)O)cn1[C@@H]2C(C)C [Example 172, (R)-5-Isopropyl-2-methoxy-9-oxo-5,9-dihydropyrido[2,3-a]indolizine-8-carboxylic acid]
The EC50 of the first is 2.7-fold higher: 2.2 µM for the first, 0.82 µM for the second. The second is the more potent here.

`CCOC(=O)c1cn2c(cc1=O)-c1nc(OC)ccc1[C@H]2C(C)C` [Example 173, (R)-ethyl-5-isopropyl-2-methoxy-9-oxo-5,9-dihydropyrido[2,3-a]indolizine-8-carboxylate] gave an EC50 of 8.6 µM.
